Laboratory results as given in patent publication US20230159463A1, “BENZONITRIC HETEROCYCLIC COMPOUND, PREPARATION METHOD THEREFOR AND USE THEREOF” (SHANGHAI ZHONGZE THERAPEUTICS, CO. LTD., priority 2020, published 2023).
Each block holds one compound with its values, some of them ahead of it.

Experiments:
HDAC6 = molecular target: T1, HDAC6 (Homo sapiens, UniProt Q9UBN7); assay: HDAC6 inhibitor screening kit (Biovision), in vitro inhibitory activity; format: biochemical
T1 construct: purchased Biovision Company
T1 sequence (Q9UBN7 1-1215): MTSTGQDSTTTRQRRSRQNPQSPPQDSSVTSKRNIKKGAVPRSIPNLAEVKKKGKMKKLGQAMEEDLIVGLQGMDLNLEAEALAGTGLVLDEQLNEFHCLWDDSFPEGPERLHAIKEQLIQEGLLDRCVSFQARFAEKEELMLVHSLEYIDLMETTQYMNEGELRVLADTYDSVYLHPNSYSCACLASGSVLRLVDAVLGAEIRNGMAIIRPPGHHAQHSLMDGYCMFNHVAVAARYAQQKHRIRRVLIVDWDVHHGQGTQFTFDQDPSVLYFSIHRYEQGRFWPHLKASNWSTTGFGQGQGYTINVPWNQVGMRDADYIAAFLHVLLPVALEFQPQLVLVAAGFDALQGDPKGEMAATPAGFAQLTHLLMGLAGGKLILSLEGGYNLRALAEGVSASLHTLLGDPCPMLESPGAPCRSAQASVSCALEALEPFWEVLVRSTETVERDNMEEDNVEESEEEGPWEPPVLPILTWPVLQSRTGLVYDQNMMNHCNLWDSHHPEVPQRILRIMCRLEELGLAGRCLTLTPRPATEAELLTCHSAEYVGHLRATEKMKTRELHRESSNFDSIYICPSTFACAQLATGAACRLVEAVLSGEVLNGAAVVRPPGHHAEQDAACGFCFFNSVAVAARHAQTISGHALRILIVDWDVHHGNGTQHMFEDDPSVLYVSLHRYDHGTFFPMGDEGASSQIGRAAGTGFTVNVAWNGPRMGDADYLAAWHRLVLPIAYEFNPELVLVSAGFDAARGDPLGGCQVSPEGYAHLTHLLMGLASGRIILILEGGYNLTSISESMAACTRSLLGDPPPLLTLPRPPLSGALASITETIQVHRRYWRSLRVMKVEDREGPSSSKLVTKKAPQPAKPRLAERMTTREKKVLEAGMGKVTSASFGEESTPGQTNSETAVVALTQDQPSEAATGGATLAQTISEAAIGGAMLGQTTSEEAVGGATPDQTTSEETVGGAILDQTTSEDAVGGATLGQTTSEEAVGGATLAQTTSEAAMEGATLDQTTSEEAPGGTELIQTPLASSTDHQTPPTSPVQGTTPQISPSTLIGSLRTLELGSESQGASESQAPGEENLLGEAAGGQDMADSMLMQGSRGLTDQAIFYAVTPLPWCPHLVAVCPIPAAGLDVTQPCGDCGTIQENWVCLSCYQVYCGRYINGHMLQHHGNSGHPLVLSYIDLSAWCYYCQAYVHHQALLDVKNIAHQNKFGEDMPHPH
Method: (§1) The in vitro inhibitory activity of histone deacetylase of the compound was determined according to the instructions of HDAC1 and HDAC6 inhibitor screening kit (Biovision Company).

HDAC1 = molecular target: T2, HDAC1 (Homo sapiens, UniProt Q13547); assay: HDAC1 inhibitor screening kit (Biovision), in vitro inhibitory activity; format: biochemical
T2 construct: purchased Biovision Company
T2 sequence (Q13547 whole entry): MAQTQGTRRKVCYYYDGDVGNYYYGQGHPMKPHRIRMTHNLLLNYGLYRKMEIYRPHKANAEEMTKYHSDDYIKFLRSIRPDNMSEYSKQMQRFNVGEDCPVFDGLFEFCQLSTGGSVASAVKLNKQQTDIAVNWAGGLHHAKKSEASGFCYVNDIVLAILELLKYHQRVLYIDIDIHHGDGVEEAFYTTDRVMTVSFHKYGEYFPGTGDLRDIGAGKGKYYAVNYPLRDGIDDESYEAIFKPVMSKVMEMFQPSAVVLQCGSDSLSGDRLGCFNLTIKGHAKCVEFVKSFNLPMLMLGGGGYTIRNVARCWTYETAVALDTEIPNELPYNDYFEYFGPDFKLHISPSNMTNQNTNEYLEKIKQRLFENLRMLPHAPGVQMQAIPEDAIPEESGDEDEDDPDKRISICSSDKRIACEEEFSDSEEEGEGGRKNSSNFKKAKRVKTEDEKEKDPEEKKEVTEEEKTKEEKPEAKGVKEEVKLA
Method: as §1

glioma cell line U-87MG = assay: In vitro anti-proliferative activity (CCK8), U-87MG; format: cell-based; conditions: Homo sapiens, 10 μM, 48 hours, CCK8, class symbol, read-out: U-87MG (Glioma) Inh % in 10 μM
[1] = test system: myeloma cell line RPMI 8226; assay: In vitro anti-proliferative activity (CCK8), RPMI 8226; format: cell-based; conditions: Homo sapiens, 48 hours, class symbol, read-out: RPMI 8226 (Myeloma) Inh % in 10 μM
Method: (§2) The specific results are shown in the table (unit: […] Test method: The tumor cells in the logarithmic growth phase with good growth status were inoculated into 96-well plates at 4×10^3 per well, and 8 duplicate wells were set up in each group. The cells were cultured in a cell incubator, after the cells adhered to the wall, […]. […] The experiment was repeated 3 times, and the average of the experimental results was taken as the final experimental result, and the inhibition rate was calculated.

[2] = test system: human liver cancer cell line HepG2; assay: In vitro anti-proliferative activity (CCK8), HepG2; format: cell-based; conditions: HepG2, 10 μM, 48 hours, CCK8, class symbol, read-out: Hep G2 (Liver cancer) Inh % in 10 μM
Method: as §2

[3] = test system: human lung cancer cell line A549; assay: In vitro anti-proliferative activity (CCK8), A549; format: cell-based; conditions: A549, 10 μM, 48 hours, CCK8, class symbol, read-out: A549 (Lung cancer) Inh % in 10 μM
Method: as §2

[4] = test system: MRC-5 human normal embryo lung fibroblast; assay: In vitro anti-proliferative activity (CCK8), MRC-5 normal cells; format: cell-based; conditions: MRC5, 10 μM, 48 hours, CCK8, class symbol, read-out: MRC-5 (Normal cell line) Inh % in 10 μM
[5] = test system: mixed cells and primary neurons in rat cortex; assay: Protective effect on HCA-induced neuronal cell damage; format: cell-based; conditions: HCA 5 mmol/L; test concentration 0.1, 1.0 and 10.0 μM; compared with Tubastatin A at the same dose
hERG potassium channels = molecular target: T3, hERG potassium channels (Homo sapiens, UniProt Q12809); assay: hERG potassium channel whole-cell patch clamp; format: cell-based; conditions: hERG-HEK293 cells, IKr current
T3 construct: expressed in transfected cells
T3 sequence (Q12809 whole entry): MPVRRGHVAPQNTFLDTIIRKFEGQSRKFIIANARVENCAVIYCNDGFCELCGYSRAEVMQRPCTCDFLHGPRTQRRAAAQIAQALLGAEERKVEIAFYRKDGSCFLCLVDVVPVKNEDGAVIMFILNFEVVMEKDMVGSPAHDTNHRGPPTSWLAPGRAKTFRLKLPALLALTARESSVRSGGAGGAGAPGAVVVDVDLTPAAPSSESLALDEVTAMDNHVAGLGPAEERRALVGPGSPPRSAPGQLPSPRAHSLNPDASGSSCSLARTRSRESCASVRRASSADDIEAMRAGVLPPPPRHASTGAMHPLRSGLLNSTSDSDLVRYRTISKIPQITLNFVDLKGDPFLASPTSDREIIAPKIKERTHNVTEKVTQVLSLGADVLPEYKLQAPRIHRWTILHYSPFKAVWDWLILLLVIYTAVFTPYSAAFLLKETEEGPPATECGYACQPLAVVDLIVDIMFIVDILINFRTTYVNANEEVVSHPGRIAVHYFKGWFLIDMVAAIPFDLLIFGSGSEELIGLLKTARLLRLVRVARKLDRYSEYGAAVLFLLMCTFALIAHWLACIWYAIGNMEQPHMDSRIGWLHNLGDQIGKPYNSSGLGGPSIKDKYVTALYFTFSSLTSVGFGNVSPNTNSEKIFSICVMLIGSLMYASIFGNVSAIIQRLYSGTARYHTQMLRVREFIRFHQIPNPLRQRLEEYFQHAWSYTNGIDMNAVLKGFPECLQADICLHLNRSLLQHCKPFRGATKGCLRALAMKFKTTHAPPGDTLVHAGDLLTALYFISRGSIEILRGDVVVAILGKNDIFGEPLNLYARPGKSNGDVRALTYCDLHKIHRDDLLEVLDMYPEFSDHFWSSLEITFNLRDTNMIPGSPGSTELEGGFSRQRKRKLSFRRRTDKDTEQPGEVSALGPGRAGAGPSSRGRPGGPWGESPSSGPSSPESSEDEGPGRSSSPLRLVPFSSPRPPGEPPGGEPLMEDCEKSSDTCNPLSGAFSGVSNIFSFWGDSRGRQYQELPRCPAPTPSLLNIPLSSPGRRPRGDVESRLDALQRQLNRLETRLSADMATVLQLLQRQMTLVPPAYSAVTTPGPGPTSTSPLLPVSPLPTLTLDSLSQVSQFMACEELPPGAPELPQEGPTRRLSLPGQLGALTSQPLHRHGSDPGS
From the text: Whole-cell patch clamp technique was used to record the changes of hERG current (IKr) after different concentrations of compounds acted on HEK293 cells (hERG-HEK293 steady-state cells) expressing hERG potassium channels to study the half inhibitory concentration (IC50) of the above compounds on IKr.

[6] = Maximum tolerance dose by intragastric administration; conditions: ICR, mouse, in vivo, po; mice, single intragastric administration, 14 days observation; read-out: maximum tolerated dose
Method: 40 ICR mice, half male and half […], weighing 18 to 20 g, were divided into 4 groups with 10 animals in each group. After 6 hours of fasting, the test samples in each group were taken with sterilized plastic syringe and orally gavaged at a volume of 0.3 mL/10 g. The general physical signs of animals and the death of animals were recorded at 1, 2 and 4 hours after administration. […] The dead animals were dissected to observe whether there were any visible pathological changes in the organs of the animals, and pathological examinations were carried out on suspicious tissues and organs.

Structure (SMILES): O=C(NO)c1ccc(CN2CCCCc3ccc(N4CCCCC4)cc32)cc1 [Compound T-14, 4-((8-(piperidin-1-yl)-2,3,4,5-tetrahydro-1H-benzo[b]azepin-1-yl)methyl)-N-hydroxybenzamide]
IC50 (HDAC6): 142 nM
IC50 (HDAC1): > 500 nM

Structure (SMILES): COc1cccc2c1CCN(Cc1ccc(C(=O)NO)cc1)CC2 [Compound T-26, 4-((6-methoxy-1,2,4,5-tetrahydro-3H-benzo[d]azepin-3-yl)methyl)-N-hydroxybenzamide]
IC50 (HDAC6): 97 nM
IC50 (HDAC1): > 500 nM

Structure (SMILES): COc1ccc2c(c1)CCCCN2Cc1ccc(C(=O)NO)cc1 [Compound T-5, 4-((7-methoxy-2,3,4,5-tetrahydro-1H-benzo[b]azepin-1-yl)methyl)-N-hydroxybenzamide]
IC50 (HDAC6): 5.6 nM
IC50 (HDAC1): 257 nM
inhibition at 10 µM (glioma cell line U-87MG): 80 to 90%
inhibition at 10 µM [1]: 90 to 100%
inhibition at 10 µM [2]: 90 to 100%
inhibition at 10 µM [3]: 70 to 80%
inhibition at 10 µM [4]: < 50%
protective effect against HCA-induced neuronal excitotoxicity (cell survival rate) [5]: stronger than that of the HDAC6 inhibitor compound Tubastatin A
IC50 (hERG potassium channels): > 10 µM
MTD at 14 days [6]: > 1000 mg/kg

Structure (SMILES): O=C(NO)c1ccc(CN2CCCCc3ccc(-c4ccncc4)cc32)cc1 [Compound T-11, 4-((8-(pyridin-4-yl)-2,3,4,5-tetrahydro-1H-benzo[b]azepin-1-yl)methyl)-N-hydroxybenzamide]
IC50 (HDAC6): 14.3 nM
IC50 (HDAC1): > 500 nM

Structure (SMILES): O=C(NO)c1ccc(CN2CCCCc3ccc(Br)cc32)cc1 [Compound T-3, 4-((8-bromo-2,3,4,5-tetrahydro-1H-benzo[b]azepin-1-yl)methyl)-N-hydroxybenzamide]
IC50 (HDAC6): 43 nM
IC50 (HDAC1): 400 nM

Structure (SMILES): CN(C)C1CCCN(Cc2ccc(C(=O)NO)cc2)c2ccccc21 (stereo not drawn) [Compound T-21, 4-((5-dimethylamino-2,3,4,5-tetrahydro-1H-benzo[b]azepin-1-yl)methyl)-N-hydroxybenzamide]
inhibition at 10 µM (glioma cell line U-87MG): 80 to 90%
inhibition at 10 µM [1]: 90 to 100%
inhibition at 10 µM [2]: 90 to 100%
inhibition at 10 µM [3]: 70 to 80%
inhibition at 10 µM [4]: < 50%
protective effect against HCA-induced neuronal excitotoxicity (cell survival rate) [5]: stronger than that of the HDAC6 inhibitor compound Tubastatin A
IC50 (hERG potassium channels): > 10 µM
MTD at 14 days [6]: > 1000 mg/kg

Structure (SMILES): CN(C)c1ccc2c(c1)N(Cc1ccc(C(=O)NO)cc1)CCCC2 [Compound T-13, 4-((8-dimethylamino-2,3,4,5-tetrahydro-1H-benzo[b]azepin-1-yl)methyl)-N-hydroxybenzamide]
IC50 (HDAC6): 85 nM
IC50 (HDAC1): > 500 nM

Structure (SMILES): COc1ccc2c(c1)CCN(Cc1ccc(C(=O)NO)cc1)CC2 [Compound T-25, 4-((7-methoxy-1,2,4,5-tetrahydro-3H-benzo[d]azepin-3-yl)methyl)-N-hydroxybenzamide]
IC50 (HDAC6): 17 nM
IC50 (HDAC1): > 500 nM

Structure (SMILES): O=C(NO)c1ccc(CN2CCCCc3ccc(-c4ccccc4)cc32)cc1 [Compound T-10, 4-((8-phenyl-2,3,4,5-tetrahydro-1H-benzo[b]azepin-1-yl)methyl)-N-hydroxybenzamide]
IC50 (HDAC6): 129 nM
IC50 (HDAC1): > 500 nM

Structure (SMILES): COc1ccc(Br)c2c1CCN(Cc1ccc(C(=O)NO)cc1)CC2 [Compound T-27, 4-((6-bromo-9-methoxy-1,2,4,5-tetrahydro-3H-benzo[d]azepin-3-yl)methyl)-N-hydroxybenzamide]
IC50 (HDAC6): 29 nM
IC50 (HDAC1): 431 nM

Structure (SMILES): O=C(NO)c1ccc(CN2CCCCc3ccc(C4CC4)cc32)cc1 [Compound T-12, 4-((8-cyclopropyl-2,3,4,5-tetrahydro-1H-benzo[b]azepin-1-yl)methyl)-N-hydroxybenzamide]
IC50 (HDAC6): 45 nM
IC50 (HDAC1): > 500 nM

Structure (SMILES): O=C(NO)c1ccc(CN2CCCCc3ccc(Cl)cc32)cc1 [Compound T-1, 4-((8-chloro-2,3,4,5-tetrahydro-1H-benzo[b]azepin-1-yl)methyl)-N-hydroxybenzamide]
IC50 (HDAC6): 37 nM
IC50 (HDAC1): > 500 nM

Continued by falling IC50 (HDAC6), values first:

IC50 (HDAC6): 12 nM
IC50 (HDAC1): > 500 nM
Structure (SMILES): O=C(NO)c1ccc(CN2CCCCc3ccccc32)cc1F [Compound T-24, 4-((2,3,4,5-tetrahydro-1H-benzo[b]azepin-1-yl)methyl)-2-fluoro-N-hydroxybenzamide]

IC50 (HDAC6): 9.2 nM
IC50 (HDAC1): 287 nM
Structure (SMILES): COc1cccc2c1N(Cc1ccc(C(=O)NO)cc1)CCCC2 [Compound T-8, 4-((9-methoxy-2,3,4,5-tetrahydro-1H-benzo[b]azepin-1-yl)methyl)-N-hydroxybenzamide]

IC50 (HDAC6): 8.6 nM
IC50 (HDAC1): 269 nM
Structure (SMILES): COc1cc2c(cc1OC)N(Cc1ccc(C(=O)NO)cc1)CCCC2 [Compound T-9, 4-((7,8-dimethoxy-2,3,4,5-tetrahydro-1H-benzo[b]azepin-1-yl)methyl)-N-hydroxybenzamide]

IC50 (HDAC6): 8.2 nM
IC50 (HDAC1): 414 nM
Structure (SMILES): O=C(NO)c1ccc(CN2CCCCc3cc(F)ccc32)cc1 [Compound T-4, 4-((7-fluoro-2,3,4,5-tetrahydro-1H-benzo[b]azepin-1-yl)methyl)-N-hydroxybenzamide]

IC50 (HDAC6): 8.2 nM
IC50 (HDAC1): 294 nM
Structure (SMILES): COc1ccc2c(c1)N(Cc1ccc(C(=O)NO)cc1)CCCC2 [Compound T-6, 4-((8-methoxy-2,3,4,5-tetrahydro-1H-benzo[b]azepin-1-yl)methyl)-N-hydroxybenzamide]

IC50 (HDAC6): 7.4 nM
IC50 (HDAC1): > 500 nM
Structure (SMILES): CN1CCCN(Cc2ccc(C(=O)NO)cc2)c2ccccc21 [Compound T-17]

IC50 (HDAC6): 7.2 nM
IC50 (HDAC1): 421 nM
Structure (SMILES): O=C(NO)c1ccc(CN2CCCC(=O)c3ccccc32)cc1 [Compound T-18, 4-((5-oxo-2,3,4,5-tetrahydro-1H-benzo[b]azepin-1-yl)methyl)-N-hydroxybenzamide]

IC50 (HDAC6): 6.5 nM
IC50 (HDAC1): 277 nM
Structure (SMILES): COc1cccc2c1CCCCN2Cc1ccc(C(=O)NO)cc1 [Compound T-7, 4-((6-methoxy-2,3,4,5-tetrahydro-1H-benzo[b]azepin-1-yl)methyl)-N-hydroxybenzamide]
